In patent US20240300902A1, “NOVEL TRANSGLUTAMINASE 2 INHIBITOR AND USE THEREOF” (MD BIOLAB CO., LTD., priority 2021, published 2024):

Legend:
430 kinds of kinases = test: Kinase panel assay conducted by Eurofins; type: biochemical
Method: A total of 430 kinds of kinases were treated with 1 μM of LDD3959 through a kinase panel assay conducted by Eurofins to examine each activity.
The ATP concentration used in this experiment was 10 μM.

[1] = test system: MDA-MB231 breast cancer cells; test: Cell viability in breast cancer cell lines according to treatment time; type: cell-based; details: MDA-MB231, 24, 48 and 72 hours
Method: Breast cancer cells (50,000 cells/well, 100 μl) were cultured in 96-well microplates, and after 24 hours, LDD3959 was added to each well in various concentrations, using a serum-free cell culture medium. In each well, a reaction was performed at 37° C. in the presence of 5% CO2 for 2 hours.
Next, the existing culture medium was replaced with a culture medium containing 10% FSB, and 24, 48, and 72 hours of reactions were performed. After the completion of each reaction, the exiting culture medium was removed, a culture medium containing a water soluble tetrazolium (WST) salt was added, the plate was allowed to react at 37° C. in the presence of 5% CO2 for a duration in the range of 1 hour to 3 hours, and the absorbance was measured at 450 nm.

renal cancer cell lines = test: Cell viability in various renal cancer cell lines (water soluble tetrazolium salt); type: cell-based; details: various concentrations, 48 hours
Method: Cells (20,000 cells/well, 100 μl) were incubated in a 96-well microplate. After 24 hours of the incubation, LDD3959 […] were added to each well in various concentrations by using a serum-free cell culture medium, and the cells were cultured at 37° C. in the presence of 5% CO2 for 2 hours. Next, the existing culture medium was replaced with a culture medium containing 10% FBS, and then incubation was carried out again for 48 hours. The existing culture medium was removed, and a new culture medium containing a water soluble tetrazolium salt was added. After that, the plate was incubated at 37° C. in the presence of 5% CO2 for a duration in the range of 1 hour to 3 hours, and then absorbance was measured at 450 nm.

## O=C1C(Cl)=C(Cl)C(=O)c2[nH]c(-c3ccc(Br)c(F)c3)nc21 [LDD3959, 2-(4-bromo-3-fluorophenyl)-5,6-dichloro-1H-benzo[d]imidazole-4,7-dione]
430 kinds of kinases; 430 kinases treated with 1 μM
  number of kinases that specifically showed inhibition: 4
430 kinds of kinases; highest concentration 1 μM, ATP 10 μM
  inhibitory activity against the 4 kinases: very good inhibitory activity
[1]
  apoptosis level according to time: exhibited a low apoptosis level at the initial stage, but the apoptosis level increased
Renal cancer cell lines
  cell viability in renal cancer cells: cancer cells in a variety of renal cancer cells were killed
